Laboratory results: article PMC11542186, “Pin1 WW Domain Ligand Library Synthesized with an Easy Solid-Phase Phosphorylating Reagent” (Biochemistry, 2024)
Where a SMILES comes first, the peptide text is derived from it. [ ]: non-standard residue; d: D form. The star is where a group is joined. pS = N[CH](COP(=O)(O)O)C(=O)O; Piperidide = C1CCN(*)CC1; Pyrrolidide = C1CCN(*)C1

molecular target: T1, Pin1 WW domain (Pin1–HRP) (Homo sapiens, UniProt Q13526); assay: ELEBA primary screening assay of the library; assay type: binding; settings: separate plate of groups A and B (L2 control 85.0443); crude library members; DMSO = 100%; mean of N = 2
T1 construct: purchased R&D Systems
T1 sequence (Q13526 whole entry, the tested form may be a part): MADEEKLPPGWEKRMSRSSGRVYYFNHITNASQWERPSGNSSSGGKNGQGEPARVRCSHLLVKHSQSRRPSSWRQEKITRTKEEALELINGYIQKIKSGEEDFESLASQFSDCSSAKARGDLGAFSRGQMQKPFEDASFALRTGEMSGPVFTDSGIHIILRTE
Method: The library was screened by the ELEBA we reported previously.[44] The crude products resulting from diethyl ether precipitation were used for the primary and secondary ELEBA without additional purification. The concentrations of the crude products were estimated based on quantitative yields; actual concentrations were thus lower, depending on yield and purity. The library products were dissolved in DMSO as stock solutions for assays. […] Recombinant human Pin1 conjugated to horseradish peroxidase (Pin1–HRP) was used in the binding assays.[44] Fmoc-VPRpTPVGGGK-NH2 L2 was used as the positive control and DMSO was used as the negative control on each plate. The percent of Pin1–HRP bound to the plate was calculated by normalizing the binding with DMSO to be 100%. In the primary assays (Figure S1), 14 of the best library members were identified: 1{2,d}, 1{18,f}, 1{20,f}, 1{10, l}, 1{13, l}, 1{18, l}, 1{20, l}, 1{10, n}, 1{18, n}, 1{19, n}, 1{2, n}, 1{20, n}, 1{14, o}, 1{3, o}. In the secondary assay, these ligands were measured again at 270 μM, and three hits, 1{2, d}, 1{18, l} and 1{2, n}, were chosen for further analysis (Figure 3).
The Pin1 WW domain ligand, Fmoc–VPRpTPVGGGK–NH2, (100 μL/well, 245 μM stock solution) was covalently attached to a 96-well plate through the ε-amino group of the Lys side chain at pH 11.0, as published.[44] Ligands were dissolved in DMSO at stock concentrations of ca. 50 mM by weight. Competitive binding with plate-linked Fmoc–VPRpTPVGGGK–NH2L1 of pSer–Pro dipeptides was measured at ca. 600 μM for primary screening. In the primary assays, all library members were screened with the crude products. 1{1-21, d} were measured as mixtures of cis- and trans-isomers. Library members synthesized from racemic reagents, such as 1{1-21, c}, 1{1-21, l}, 1{1-21, q}, 1{3, a-q} and 1{8, a-q} were measured as diastereomeric mixtures. The library members were dissolved in DMSO as stock solutions with a concentration of about 37 mM based on estimated yields. The DMSO stock solution of each compound (4 μL) was added into a solution of recombinant Pin1–HRP (R&D Systems) in a PBS buffer with 2% BSA (pH = 7.3). DMSO (4 μL) was used as a negative control. The final volume of the solution was 250 μL, the final concentration of Pin1–HRP was 200 pM, and the estimated final compound concentration was 590 μM. The resulting solution was preincubated for 30 min at ambient temperature, and was added into two wells (100 μL each, for assay in duplicate) of the ligand-linked plate. The solutions were incubated for another 1 h. The solutions were removed by inverting and shaking the plate, and the plate was washed with buffer ([…], and 0.05% Tween 20 in PBS at pH 7.3) three times. A 1:1 solution of hydrogen peroxide and 3,3,5,5′-tetramethylbenzidine (100 μL) was added into each plate well, and incubated in the dark for 20 min. A 2N H2SO4 solution (50 μL) was added to each well to quench the reaction, and the absorbance of was determined at 450 nm. The percentage of Pin1–HRP bound to the plate (% binding) was calculated by eq 1. To calculate the absorbance of a plate well in eq 1, the blank ligand-linked plate was predetermined at the same wavelength, and the absorbance of the blank well was subtracted from the absorbance of the same well containing the final solution. [drawing 2] 1 […]
The Fmoc-Ser(2- […]
cyanoethylphosphate)-OH product was cleaved from the resin with TFA. 1H NMR indicated the presence of the Fmoc group, implying that the substrate was successfully attached to the resin (data not shown). To develop the coupling methods, 2-(2-naphthyl)ethylamine and propionic acid were reacted with the pSer–Pro resin. The resulting propanoyl-pSer–Pro–(2-(2-naphthyl)ethyl)-amide (1H NMR below) was excluded from the library assays.
Figure S1 (following pages). Ligands (group A – O) were screening using ELEBA at ca. 266 µM.
Fmoc-VPRpTPVGGGK-NH2 L2 was used as positive control at 76-87 µM from stock solutions […]
of 4.3-4.8 mM. […]

Compared with `CCN(CC)CCCCN(C)C(=O)[C@@H]1CCCN1C(=O)[C@H](COP(=O)(O)O)NC(C)=O` [1{7,a}], `CC(=O)N[C@@H](COP(=O)(O)O)C(=O)N1CCC[C@H]1C(=O)N(C)CCc1ccccn1` [1{5,a}] is higher in “% of Pin1-HRP bound to plate-linked ligand” value (“% of Pin1-HRP bound” for short): 99.5048% for the first, 108.292% for the second.

Going from `CC(=O)N[C@@H](COP(=O)(O)O)C(=O)N1CCC[C@H]1C(=O)N1CCCCC1` [1{19,a}] (Ac-[pS]-Pro-Piperidide) to `CC(=O)NC(COP(=O)(O)O)C(=O)N1CCCC1C(=O)N1CCCC1` (stereo not shown) [1{1,a}] (Ac-[pS]-Pro-Pyrrolidide; configuration not given here), the “% of Pin1-HRP bound” value falls from 116.14% to 111.106%.

First: CC(=O)N[C@@H](COP(=O)(O)O)C(=O)N1CCC[C@H]1C(=O)N1CCN(c2ncccn2)CC1 [1{10,a}]
Second: O=C(C=Cc1c[nH]cn1)NC(COP(=O)(O)O)C(=O)N1CCCC1C(=O)N1CCN(c2ncccn2)CC1 (stereo not shown) [1{10,b}]
The “% of Pin1-HRP bound” value of the first is higher: 102.123% for the first, 93.9893% for the second.

Compared with `CC(=O)NC(COP(=O)(O)O)C(=O)N1CCCC1C(=O)NCCCN1CCOCC1` (stereo not shown) [1{17,a}], `O=C(/C=C/c1c[nH]cn1)N[C@@H](COP(=O)(O)O)C(=O)N1CCC[C@H]1C(=O)NCCCN1CCOCC1` [1{17,b}] is lower in “% of Pin1-HRP bound” value: 117.069% for the first, 94.8602% for the second.

First: CC(=O)N[C@@H](COP(=O)(O)O)C(=O)N1CCC[C@H]1C(=O)NCCc1c[nH]c2ccccc12 [1{14,a}]
Second: CC(=O)NC(COP(=O)(O)O)C(=O)N1CCCC1C(=O)NCCc1ccc2ccccc2c1 (stereo not shown) [1{21,a}]
The “% of Pin1-HRP bound” value of the first is higher: 120.534% for the first, 113.792% for the second.

Compared with `CC(=O)N[C@@H](COP(=O)(O)O)C(=O)N1CCC[C@H]1C(=O)NCCCCCCN` [1{11,a}], `NCCCCCCNC(=O)[C@@H]1CCCN1C(=O)[C@H](COP(=O)(O)O)NC(=O)/C=C/c1c[nH]cn1` [1{11,b}] is higher in “% of Pin1-HRP bound” value: 74.9059% for the first, 79.8617% for the second.

Going from `CC(CN(C)C(=O)C1CCCN1C(=O)C(COP(=O)(O)O)NC(=O)C=Cc1c[nH]cn1)c1ccccc1` (mixture of isomers) [1{3,b}] to `CN(CCc1ccccn1)C(=O)C1CCCN1C(=O)C(COP(=O)(O)O)NC(=O)C=Cc1c[nH]cn1` (stereo not shown) [1{5,b}], the “% of Pin1-HRP bound” value falls from 124.358% to 113.92%.

Compared with `CC(=O)N[C@@H](COP(=O)(O)O)C(=O)N1CCC[C@H]1C(=O)NC1CCN(Cc2ccccc2)CC1` [1{15,a}], `CC(=O)N[C@@H](COP(=O)(O)O)C(=O)N1CCC[C@H]1C(=O)NNC(=O)c1ccco1` [1{18,a}] is lower in “% of Pin1-HRP bound” value: 110.698% for the first, 102.518% for the second.

Compared with `CC(=O)NC(COP(=O)(O)O)C(=O)N1CCCC1C(=O)NCCc1ccc(O)cc1` (stereo not shown) [1{4,a}], `CC(=O)N[C@@H](COP(=O)(O)O)C(=O)N1CCC[C@H]1C(=O)Nc1ccc2[nH]ncc2c1` [1{2,a}] is lower in “% of Pin1-HRP bound” value: 120.879% for the first, 115.042% for the second.

Compared with `O=C(C=Cc1c[nH]cn1)NC(COP(=O)(O)O)C(=O)N1CCCC1C(=O)NCCc1c[nH]cn1` (stereo not shown) [1{9,b}], `O=C(C=Cc1c[nH]cn1)NC(COP(=O)(O)O)C(=O)N1CCCC1C(=O)NCCc1ccc2ccccc2c1` (stereo not shown) [1{21,b}] is lower in “% of Pin1-HRP bound” value: 117.354% for the first, 77.3223% for the second.

First: CC(=O)NC(COP(=O)(O)O)C(=O)N1CCCC1C(=O)N1CCC(N2CCCCC2)CC1 (stereo not shown) [1{13,a}]
Second: O=C(C=Cc1c[nH]cn1)NC(COP(=O)(O)O)C(=O)N1CCCC1C(=O)N1CCCCC1 (stereo not shown) [1{19,b}]
The “% of Pin1-HRP bound” value of the first is higher: 109.315% for the first, 97.5722% for the second.

Going from `O=C(C=Cc1c[nH]cn1)NC(COP(=O)(O)O)C(=O)N1CCCC1C(=O)Nc1ccc2[nH]ncc2c1` (stereo not shown) [1{2,b}] to `COC(=O)C=C(C)NC(=O)[C@@H]1CCCN1C(=O)[C@H](COP(=O)(O)O)NC(C)=O` [1{6,a}], the “% of Pin1-HRP bound” value rises from 113.209% to 116.564%.

For `CC(=O)NC(COP(=O)(O)O)C(=O)N1CCCC1C(=O)NCCCN1CCCCC1C` (mixture of isomers) [1{8,a}], the “% of Pin1-HRP bound” value was 108.888%.
